Values of other authors, collected in US11246836B2, “Intramuscular depot of decoquinate compositions and method of prophylaxis and treatment thereof” (BLUELIGHT PHARMATECH CO., LTD., priority 2018, dated 2022).
In brackets after ≈: the same amount, converted by molar mass.

Tests used:
[1] = system: P. yoelii; conditions: 50 mg/kg in a corn oil emulsion
[2] = system: Plasmodium
[3] = system: Plasmodium berghei ANKA; conditions: single dose of 5 mg/kg suspended in soybean oil

## CCCCCCCCCCOc1cc2c(=O)c(C(=O)OCC)c[nH]c2cc1OCC [decoquinate, ethyl-6-decyloxy-7-ethoxy-4-hydroxyquinoline-3-carboxylate]
[1]
  causal prophylaxis of parasitemia: efficacious
[2]
  minimum inhibitory concentration (MIC): 5.12 ng/mL (≈ 0.0123 µM)
[3]
  appearance of blood stage parasites: prevent the appearance of blood stage Plasmodium berghei ANKA parasites
